# From patent publication US11072628B2, “Nucleoside analogues for the treatment of parasitic infections” (UNIVERSITEIT GENT, priority 2017, dated 2021)
# “And” between values parts separate entries of the source, which are not always exact repeats. Equal values may be shown once. “Also recorded” adds a separate entry of the source. Read-outs that look alike come from different tables or passages of the source.
# Tests used:
# [1] = tested on: T. cruzi Tulahuen CL2 β galactosidase strain; test: T. cruzi Tulahuen CL2 β galactosidase strain on MRC-5SV2 cells (CPRG); format: cell-based, Trypanosoma cruzi; details: Trypanosoma cruzi, TULAHUEN, MRC-5 SV2
# Method: All cultures and assays were conducted at 37° C./5% CO2. […] The results were expressed as % reduction in parasite burdens compared to control wells from which an EC50 was calculated.
# T. brucei Squib 427 = test: In vitro drug susceptibility, T. brucei Squib 427 (resazurin); format: cell-based, Trypanosoma brucei brucei; details: for EC50: Trypanosoma brucei
# Method: (§1) All trypanosome strains were cultured in the standard HMI-9 medium supplemented with 10% fetal bovine serum (FBS) at 37° C. in a 5% CO2 atmosphere.
# T. b. brucei ISMR1 = test: microbe, parasite or virus in culture; format: cell-based, Trypanosoma brucei brucei; details: for EC50: Trypanosoma brucei, read-out: ISMR1 EC50; for RF (resistance factor) ISMR1: ratio of EC50 between ISMR1 and Lister-427
# Method: (§2) Fluorescence was determined using a FLUOstar Optima (BMG Labtech, Durham, N.C.) and the results fitted to a sigmoid curve with variable slope using Prism 5.0 (GraphPad, San Diego, Ca).
# T. b. brucei TbAT1-KO = test: microbe, parasite or virus in culture; format: cell-based, Trypanosoma brucei brucei; details: for EC50: Trypanosoma brucei, read-out: TbAT1-KO EC50; for RF (resistance factor) TbAT1-KO: ratio of EC50 between TbAT1-KO and Lister-427
# Method: as §2
# T. b. brucei B48 = test: microbe, parasite or virus in culture; format: cell-based, Trypanosoma brucei brucei; details: for EC50: Trypanosoma brucei, read-out: B48 EC50; for RF (resistance factor) B48: ratio of EC50 between B48 and Lister-427
# Method: as §2
# [2] = tested on: T. b. brucei Lister 427 (wild-type); test: Drug susceptibility test, Lister 427WT (resazurin); format: cell-based; details: Trypanosoma brucei, read-out: Lister-427 EC50
# Method: as §2
# [3] = Cytotoxicity against MRC-5 fibroblasts; details: human
# Method: Cytotoxicity was assayed against MRC-5 fibroblasts. Results are depicted in Tables 4 and 5.
# T. b. brucei Squib 427 [4] = details: comparison statement, not tested here; cited from earlier work
# [5] = tested on: T. b. rhodesiense STIB-900; test: In vitro drug susceptibility, T. b. rhodesiense STIB-900 (resazurin); format: cell-based, Trypanosoma brucei rhodesiense; details: for EC50: Trypanosoma brucei, RHODESIENSE
# Method: as §1
# T. b. brucei Squib 427 [6] = test: In vivo antiparasitic activity in mice (T. brucei; acute model); parameters: species or system Trypanosoma brucei brucei; details: for parasitological cure (sub-inoculation in naive mice): animals surviving until day 21 post infection; for clinical symptoms of trypanosomiasis / parasitemia: infected mice, 5 consecutive days, test compound 25 mg/kg PO b.i.d. (FH7429_D also 10 mg/kg s.i.d. IP), suramin 10 mg/kg; for adverse drug effects: mice, 5 days treatment
# Method: The test compound of the invention was formulated in 10% (V/V) PEG400 in water at 2 mg/mL and was freshly prepared at every administration. The test compound was administered orally (PO) b.i.d. for 5 days at 25 mg/kg. The reference drug suramin was formulated in PBS at 2.5 mg/mL and administered s.i.d. IP for 5 days at 10 mg/kg. Treatment was initiated ½ hour prior to the IP infection.
# T. cruzi (Y-strain) = test: In vivo antiparasitic activity in mice (T. cruzi Y-strain); parameters: species or system Trypanosoma cruzi; details: 25 mg/kg PO b.i.d. for five days starting at 5 dpi
# Method: The animals were allowed to acclimate for 7 days before starting the experiments. […] Age-matched non-infected mice were maintained under identical conditions. The animals were divided into the following groups (n=6): uninfected (non-infected and non-treated), untreated (infected but treated only with vehicle), and treated (infected and treated with the compounds). […] Formulations were prepared freshly before each administration. Only mice with positive parasitemia were used in the infected groups. Parasitemia was individually checked by direct microscopic counting of the number of parasites in 5 μl of blood (Panel A—FIG. 5), and mice were checked for mortality daily until 30 days post-treatment (corresponding to 40 dpi). Mortality is expressed as the percent cumulative mortality (CM; Panel B—FIG. 5).
# [7] = tested on: T. vaginalis trophozoites (metronidazole susceptible G3 strain); test: Trichomonas vaginalis in vitro assay; format: cell-based; details: Trichomonas vaginalis, average of 2-5 independent replicates
# Method: T. vaginalis trophozoites (metronidazole susceptible G3 strain) were grown in vitro in modified Diamond's media (MDM) with 10% heat inactivated horse serum (HIHS) acquired from Gibco Life Technologies. After medium preparation, the pH was adjusted to 6.3-6.4 employing 1.0 M aq. HCl. Parasites cultures were passaged every day by taking 1 mL of cell culture into a 25 mL bottle of fresh media to ensure the cells were kept at the appropriate concentration of ˜2×10^6 cells/mL. The culture flasks were filled completely and tightly capped to provide the cells with an anaerobic environment. The parasites were maintained in incubation at 37° C. When culturing in multiwell plates, the plates were sealed with Nescofilm® and inserted in BD GasPak EZ pouches (BD Diagnostics, UK) in order to create anaerobic conditions. Assays were performed with 5×10^4 trophozoites/well (100 μL) to which compound dilutions were added (100 μL). Outside wells of columns and rows were filled with 200 μL of sterile water. Plates were sealed with Nescofilm® and incubated under anaerobic conditions as described above. After 24 h, 30 μL of assay dye solution (resorufin) was added, and incubated for 1-2 h before being read using Fluostar Optima (BMG Labtech, UK) at an excitation wavelength of 544 nm and an emission wavelength of 620 nm.
# T. brucei AnTAR1 PPYRE9 = test: In vivo antiparasitic activity in mice (T. brucei; stage-II disease model); parameters: species or system Trypanosoma brucei; details: treatment from 21 dpi for 5 days; 25 mg/kg PO b.i.d. or 25, 12.5 or 6.25 mg/kg s.i.d.
# Method: The test compound, FH7429_D was formulated in 5% (V/V) Tween80 at 4 mg/mL and administered according to body weight (25 mg/kg bid., oral gavage) for 5 days. Treatment commenced at 21 dpi, in mice which had positive CNS involvement (BLI). Two reference groups: vehicle control as well as melarsoprol (120 mg/kg, s.i.d. topical for 3 days) were included. Topical melarsoprol formulation was prepared as following: 3.6% melarsprol in propylene glycol was used to prepare a 1.5% hydroxypropylcellulose (HPC) gel.
# Parasitemia analysis was performed by microscopic evaluation of tail vein blood samples at 21 (before treatment initiation), 25, 28, 32 and 35 dpi. Bioluminescent imaging (BLI) was performed at 7, 14, 21, 28, 35, 43, 50 and 53 dpi. BLI experiments were performed as following: D-luciferin (15 mg/kg) was injected intraperitoneally, and mice were subsequently anaesthetized using isoflurane. The luminescent signal was measured over a 5 second as well as 5-minute exposure time, both for the ventral as well as the dorsal side of the animals.
# [8] = Table 5, average of 2-4 independent replicates
# [9] = read-out: T.b. brucei EC50, Table 4, average of 2-6 independent determinations
# [10] = Table 2, average of 2-3 independent replicates
# [11] = read-out: T. brucei brucei EC50, Table 1, average of 2-4 independent determinations
# [12] = MRC-5 fibroblasts, MRC-5 EC50, Table 1, cytotoxicity
# [13] = MRC-5 fibroblasts, MRC-5 EC50, Table 2, cytotoxicity
compound,measurement,setting,value
"Nc1ncnc2c1ccn2[C@@H]1O[C@H](CO)[C@@H](O)[C@H]1O [FH5284, tubercidin]",EC50,[1]; [8],340 nM
same,EC50,T. brucei Squib 427; [9],480 nM
same,EC50,T. b. brucei ISMR1,1700 ± 500 nM
same,EC50,T. b. brucei TbAT1-KO,2600 ± 700 nM
same,RF (resistance factor) TbAT1-KO,T. b. brucei TbAT1-KO,> 17 and 17.2
same,EC50,T. b. brucei B48,4300 ± 1300 nM
same,EC50,[2],150 ± 30 nM
same,EC50,[3],2230 nM
N=C(N)c1ccc(OCCCCCOc2ccc(C(=N)N)cc2)cc1 [Pentamidine],EC50,T. b. brucei ISMR1,140 ± 40 nM
same,EC50,T. b. brucei TbAT1-KO,18 ± 2 nM
same,RF (resistance factor) TbAT1-KO,T. b. brucei TbAT1-KO,1.8
same,EC50,T. b. brucei B48,990 ± 160 nM
same,EC50,[2]; reference cell line,11 ± 1 nM
N=C(N)c1ccc(/N=N/Nc2ccc(C(=N)N)cc2)cc1 [Diminazene],EC50,T. b. brucei ISMR1,2900 ± 420 nM
same,RF (resistance factor) ISMR1,T. b. brucei ISMR1,6.9
same,EC50,T. b. brucei TbAT1-KO,4500 ± 900 nM
same,RF (resistance factor) TbAT1-KO,T. b. brucei TbAT1-KO,10.6
same,EC50,T. b. brucei B48,7200 ± 1600 nM
same,EC50,[2],420 ± 64 nM
"Nc1ncnc2c1ncn2[C@@H]1O[C@H](CO)C[C@H]1O [cordycepin, 3′-deoxy-adenosine]",clearance of T. brucei infection as a monotherapy,T. b. brucei Squib 427 [4],unable to clear the infection
"Nc1ncnc2c1c(-c1ccccn1)cn2[C@@H]1O[C@H](CO)[C@@H](O)[C@H]1O [TH1008, 4-amino-5-(pyrid-2-yl)-N7-(β-D-ribofuranosyl)-pyrrolo[2,3-d]pyrimidine]",EC50,[1]; [8],5020 nM
same,"anti-trypanosomal activity against T. brucei, in words",T. brucei Squib 427,nanomolar antitrypanosomal activity
same,selectivity index (SI) for T. b. brucei,T. brucei Squib 427; MRC-5 versus T. b. brucei,50
same,EC50,T. brucei Squib 427; [9],360 nM
same,EC50,T. b. brucei ISMR1,430 ± 70 nM
same,RF (resistance factor) ISMR1,T. b. brucei ISMR1,2.5
same,EC50,T. b. brucei TbAT1-KO,400 ± 90 nM
same,RF (resistance factor) TbAT1-KO,T. b. brucei TbAT1-KO,2.4
same,EC50,T. b. brucei B48,270 ± 40 nM
same,RF (resistance factor) B48,T. b. brucei B48,1.6
same,selectivity index for T. b. rhodesiense,[5]; MRC-5 versus T. b. rhodesiense,~500
same,EC50,[5]; read-out: T.b. rhod. EC50,31 nM
same,EC50,[2],170 ± 40 nM
same,detectability of parasites in the peripheral blood,T. b. brucei Squib 427 [6]; 25 mg/kg PO b.i.d. for 5 days,undetectable from 8 dpi onwards
same,"parasites in the peripheral blood, mean Log10","T. b. brucei Squib 427 [6]; 4 dpi, 25 mg/kg PO b.i.d. for 5 days",7.5
same,parasitological cure (sub-inoculation in naive mice),T. b. brucei Squib 427 [6],total parasitological cure
same,clinical symptoms of trypanosomiasis / parasitemia,T. b. brucei Squib 427 [6],no clinical symptoms of trypanosomiasis were observed
same,adverse drug effects,T. b. brucei Squib 427 [6],No signs of adverse drug effects were observed
"Nc1ncnc2c1c(-c1ccc(Cl)cc1)cn2[C@@H]1O[C@H](CO)[C@@H](O)[C@H]1O [TH1012, 4-amino-5-(4-chlorophenyl)-N7-(β-D-ribofuranosyl)-pyrrolo[2,3-d]pyrimidine]",blood parasitemia,T. cruzi (Y-strain),full suppression of parasitemia
same,mortality caused by the infection,T. cruzi (Y-strain),protected animals from mortality
same,EC50,[1]; [8],470 nM
same,"anti-trypanosomal activity against T. brucei, in words",T. brucei Squib 427,low μM EC50
same,EC50,T. brucei Squib 427; [9],7580 nM
same,EC50,[7]; Table 6,30 nM
same,EC50,"[3]; MRC-5 fibroblasts, MRC-5 EC50, Table 4, cytotoxicity",27000 nM
same,EC50,"[3]; MRC-5 fibroblasts, MRC-5 EC50, Table 5, cytotoxicity",27000 nM
"Nc1ncnc2c1ccn2[C@@H]1O[C@H](CO)C[C@H]1O [FH7429_D, 4-amino-N7-(3′-deoxy-β-D-ribofuranosyl)-pyrrolo[2,3-d]pyrimidine]",EC50,[1]; [10],> 64000 nM
same,EC50,T. brucei Squib 427; [11],50 nM
same,cure in stage-II HAT model,T. brucei AnTAR1 PPYRE9,considered cured
same,parasitemia (BLI or tail vein blood analysis),T. brucei AnTAR1 PPYRE9,did not show any signs of parasitemia from 28 dpi onwards
same,EC50,[5]; read-out: T. brucei rhod. EC50,0.5 nM
same,parasitological cure (sub-inoculation in naive mice),T. b. brucei Squib 427 [6],total parasitological cure; also recorded: able cure an acute infection
same,clinical symptoms of trypanosomiasis / parasitemia,T. b. brucei Squib 427 [6],no clinical symptoms of trypanosomiasis were observed
same,adverse drug effects,T. b. brucei Squib 427 [6],No signs of adverse drug effects were observed
same,EC50,[3]; [12],> 64000 nM
same,EC50,[3]; [13],> 64000 nM
CC[n+]1c(-c2ccccc2)c2cc(N/N=N/c3cccc(C(=N)N)c3)ccc2c2ccc(N)cc21 [Isometamidium],EC50,T. b. brucei ISMR1,3100 ± 500 nM
same,RF (resistance factor) ISMR1,T. b. brucei ISMR1,4.81
same,EC50,T. b. brucei TbAT1-KO,750 ± 140 nM
same,RF (resistance factor) TbAT1-KO,T. b. brucei TbAT1-KO,1.2
same,EC50,T. b. brucei B48,560 ± 130 nM
same,RF (resistance factor) B48,T. b. brucei B48,0.85
same,EC50,[2],650 ± 85 nM
"Cc1ccc(C(=O)Nc2ccc(S(=O)(=O)O)c3cc(S(=O)(=O)O)cc(S(=O)(=O)O)c23)cc1NC(=O)c1cccc(NC(=O)Nc2cccc(C(=O)Nc3cc(C(=O)Nc4ccc(S(=O)(=O)O)c5cc(S(=O)(=O)O)cc(S(=O)(=O)O)c45)ccc3C)c2)c1 [Suramin, reference compound]",EC50,"T. brucei Squib 427; Table 1, average of 2-4 independent determinations, read-out: T. brucei brucei EC50",50 nM
same,EC50,"T. brucei Squib 427; Table 4, average of 2-6 independent determinations, read-out: T.b. brucei EC50",50 nM
same,EC50,"[5]; Table 1, average of 2-4 independent determinations, read-out: T. brucei rhod. EC50",40 nM
same,EC50,"[5]; Table 4, average of 2-6 independent determinations, read-out: T.b. rhod. EC50",40 nM
same,clinical symptoms of trypanosomiasis / parasitemia,T. b. brucei Squib 427 [6],no symptoms nor parasitemia developed
"Nc1ncnc2c1c(-c1ccc(Cl)cc1)cn2[C@@H]1O[C@H](CO)C[C@H]1O [FH8512, 4-amino-5-(4-chlorophenyl)-N7-(3′-deoxy-β-D-ribofuranosyl)-pyrrolo[2,3-d]pyrimidine]",blood parasitemia,T. cruzi (Y-strain),suppress blood parasitemia
same,mortality caused by the infection,T. cruzi (Y-strain),protect animals from mortality
same,EC50,[1]; [10],50 nM
same,EC50,T. brucei Squib 427; [11],2300 nM
same,EC50,[7]; Table 3,170 nM
same,EC50,[5]; read-out: T. brucei rhod. EC50,1800 nM
same,EC50,[3]; [12],19100 nM
same,EC50,[3]; [13],19100 nM
